Assay results: patent US20070004660A1, “Synergistic Modulation of Flt3 Kinase Using Alkylquinolines and Alkylquinazolines” (priority 2005, published 2007)

test system: MV4-11 cells; assay: Inhibition of MV4-11 cell proliferation (CellTiterGlo, 72 h); type: cell-based; settings: Homo sapiens; 72 h growth inhibition; uncertainty ±20%

Structure (SMILES)	IC50
CC(=O)N1CCC[C@H]1COc1ccc2c(C3CCN(C(=O)Nc4ccc(N5CCCC5)cc4)CC3)ncnc2c1 [Example 162, (S)-4-[7-(1-Acetyl-pyrrolidin-2-ylmethoxy)-quinazolin-4-yl]-piperidine-1-carboxylic acid (4-pyrrolidin-1-yl-phenyl)-amide]	46 nM
CS(=O)(=O)N1CCN(CCCOc2ccc3c(C4CCN(C(=O)Nc5ccc(N6CCCC6)cc5)CC4)ncnc3c2)CC1 [Example 164, 4-{7-[3-(4-Methanesulfonyl-piperazin-1-yl)-propoxy]-quinazolin-4-yl}-piperidine-1-carboxylic acid (4-pyrrolidin-1-yl-phenyl)-amide]	36 nM
O=C(Nc1ccc(N2CCCC2)cc1)N1CCC(c2ncnc3cc(OCCO)ccc23)CC1 [Example 169, 4-[7-(2-Hydroxy-ethoxy)-quinazolin-4-yl]-piperidine-1-carboxylic acid (4-pyrrolidin-1-yl-phenyl)-amide]	32 nM
CC(=O)N1CC(Oc2ccc3c(C4CCN(C(=O)Nc5ccc(N6CCCC6)cc5)CC4)ncnc3c2)C1 [Example 170, 4-[7-(1-Acetyl-azetidin-3-yloxy)-quinazolin-4-yl]-piperidine-1-carboxylic acid (4-pyrrolidin-1-yl-phenyl)-amide]	97 nM
CS(=O)(=O)N1CC(Oc2ccc3c(C4CCN(C(=O)Nc5ccc(N6CCCC6)cc5)CC4)ncnc3c2)C1 [Example 171, 4-[7-(1-Methanesulfonyl-azetidin-3-yloxy)-quinazolin-4-yl]-piperidine-1-carboxylic acid (4-pyrrolidin-1-yl-phenyl)-amide]	185 nM
O=C(COc1ccc2c(C3CCN(C(=O)Nc4ccc(N5CCCC5)cc4)CC3)ncnc2c1)N1CCOCC1 [Example 172, 4-[7-(2-Morpholin-4-yl-2-oxo-ethoxy)-quinazolin-4-yl]-piperidine-1-carboxylic acid (4-pyrrolidin-1-yl-phenyl)-amide]	248 nM
O=C(Nc1ccc(N2CCCC2)cc1)N1CCC(c2ncnc3cc(Oc4cccnc4)ccc23)CC1 [Example 174, 4-[7-(Pyridin-3-yloxy)-quinazolin-4-yl]-piperidine-1-carboxylic acid (4-pyrrolidin-1-yl-phenyl)-amide]	214 nM

Compounds with a lower IC50, results first:

IC50	Structure (SMILES)
20 nM	CC(=O)N1CCC(COc2ccc3c(C4CCN(C(=O)Nc5ccc(N6CCCC6)cc5)CC4)ncnc3c2)CC1 [Example 163, 4-[7-(1-Acetyl-piperidin-4-ylmethoxy)-quinazolin-4-yl]-piperidine-1-carboxylic acid (4-pyrrolidin-1-yl-phenyl)-amide]
18 nM	CN(C)C(=O)N1CCN(CCCOc2ccc3c(C4CCN(C(=O)Nc5ccc(N6CCCC6)cc5)CC4)ncnc3c2)CC1 [Example 165, 4-(3-{4-[1-(4-Pyrrolidin-1-yl-phenylcarbamoyl)-piperidin-4-yl]-quinazolin-7-yloxy}-propyl)-piperazine-1-carboxylic acid dimethylamide]
17 nM	CC(=O)N1CCN(c2ccc3c(C4CCN(C(=O)Nc5ccc(N6CCCC6)cc5)CC4)ncnc3c2)CC1 [Example 166, 4-[7-(4-Acetyl-piperazin-1-yl)-quinazolin-4-yl]-piperidine-1-carboxylic acid (4-pyrrolidin-1-yl-phenyl)-amide]
21 nM	CS(=O)(=O)N1CCN(c2ccc3c(C4CCN(C(=O)Nc5ccc(N6CCCC6)cc5)CC4)ncnc3c2)CC1 [Example 167, 4-[7-(4-Methanesulfonyl-piperazin-1-yl)-quinazolin-4-yl]-piperidine-1-carboxylic acid (4-pyrrolidin-1-yl-phenyl)-amide]
16 nM	O=C(Nc1ccc(N2CCCC2)cc1)N1CCC(c2ncnc3cc(N4CCC4)ccc23)CC1 [Example 173, 4-(7-Azetidin-1-yl-quinazolin-4-yl)-piperidine-1-carboxylic acid (4-pyrrolidin-1-yl-phenyl)-amide]
18 nM	O=C(Nc1ccc(N2CCCC2)cc1)N1CCC(c2ncnc3cc(NCCO)ccc23)CC1 [Example 175, 4-[7-(2-Hydroxy-ethylamino)-quinazolin-4-yl]-piperidine-1-carboxylic acid (4-pyrrolidin-1-yl-phenyl)-amide]
8 nM	O=C(Nc1ccc(N2CCCC2)cc1)N1CCC(c2ncnc3cc(N4CCOC4=O)ccc23)CC1 [Example 176, 4-[7-(2-Oxo-oxazolidin-3-yl)-quinazolin-4-yl]-piperidine-1-carboxylic acid (4-pyrrolidin-1-yl-phenyl)-amide]
